Here are results for 53 compounds from patent publication US20260234139A1, “PGDH INHIBITORS AND METHODS OF MAKING AND USING” (Epirium Bio Inc., priority 2023, published 2026).

Structures are written as SMILES. Where only a bound is given, the exact number is not on record here.

In assay [1] the target is T1, 15-PGDH/HPGD (Homo sapiens, UniProt P15428).
T1 construct: purchased R&D System 5660-DH
T1 sequence (P15428 1-266): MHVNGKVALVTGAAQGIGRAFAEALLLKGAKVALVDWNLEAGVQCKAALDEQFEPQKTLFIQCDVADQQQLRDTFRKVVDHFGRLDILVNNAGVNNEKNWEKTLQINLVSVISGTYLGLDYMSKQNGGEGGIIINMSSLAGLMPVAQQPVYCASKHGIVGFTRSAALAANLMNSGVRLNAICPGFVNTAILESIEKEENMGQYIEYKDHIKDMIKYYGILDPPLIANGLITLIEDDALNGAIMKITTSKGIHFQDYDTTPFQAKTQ
Put plainly: hPGDH inhibitor screening biochemical assay. To be noted: 10 nM enzyme, 15 μM Prostaglandin E2, 0.25 mM NAD, fluorescence ex/em 340/485 nm. As to the method: A hydroxyprostaglandin dehydrogenase inhibition screening biochemical assay can be performed to assess the synthesized inhibitors provided herein. Provided herein is an exemplary biochemical assay for hPGDH inhibitor screening.
The in vitro biochemical assay can be performed in white, 384 plates in total 20 μl reaction volume consisting of 10 nM of 15-PGDH/HPGD (R&D System #5660-DH), 15 μM Prostaglandin E2 (Sigma, Cat #P5640-10 MG) and 0.25 mM B-Nicotinamide adenine dinucleotide sodium salt (Sigma, Cat #N0632-5G) made in reaction buffer (50 mM Tris-HCl, pH 7.5, 0.01% Tween 20) at 10-point dose response curve for test/tool compounds. Briefly, 5 μl (4×) of compounds solution and 5 μl (final concentration, 10 nM) of enzyme solution is added to white 384 well plates and incubated for 10 mins at 37° C. 5 μl (4×) of Prostaglandin E2 and 5 μl (4×) of β-Nicotinamide adenine dinucleotide sodium salt is added to the wells and incubated for 10 mins at room temperature. Fluorescence is recorded at ex/em=340 nm/485 nm.

The subject of assay [2] is A549. As to the kind of experiment: A549 EC50 (cell assay, method not described). It is filed as cell-based. Conditions: Homo sapiens, A549, A549.

Take `O=C(O)c1ccc(-n2ncc3cc([C@@H](O)COC4CCC4)cnc32)cc1` [Compound 42A, (R)-4-(5-(2-cyclobutoxy-1-hydroxyethyl)-1H-pyrazolo[3,4-b]pyridin-1-yl)benzoic acid]: the IC50 in assay [1] is below 100 nM. Further, in assay [2], the EC50 is at least 1000 nM. The matching figures for `CC(C)(O)C[C@@H](O)c1cnc2c(cnn2-c2cccc(-c3nnc[nH]3)c2)c1` [Compound 43A]: below 100 nM and at least 1000 nM. The corresponding values for `O[C@@H](COC1CCC1)c1cnc2c(cnn2-c2ccc(N3CCOCC3)cc2)c1` [Compound 76A] are 100 to 1000 nM and at least 1000 nM. `CCOC1([C@H](O)c2cnc3c(cnn3-c3cccc(-c4nnc[nH]4)c3)c2)CC1` [Compound 63A]: the IC50 in assay [1] was at least 1000 nM. In assay [2], the EC50 is at least 1000 nM.

`CC(C)NC[C@H](O)c1cnc2c(cnn2-c2cccc(-c3nnc[nH]3)c2)c1` [Compound 27A, (R)-1-(1-(3-(4H-1,2,4-triazol-3-yl)phenyl)-1H-pyrazolo[3,4-b]pyridin-5-yl)-2-(isopropylamino) ethan-1-ol] came in with a half-inhibitory concentration (IC50) in assay [1] of at least 1000 nM. This compound also had an EC50 in assay [2] of at least 1000 nM.

For the compound `CCCC[C@H](O)c1cnc2c(ccn2-c2cc(Cl)cc(-c3nnc[nH]3)c2)c1` [Compound 17B], in assay [1], the IC50 was below 100 nM. The compound further returned an EC50 in assay [2] below 100 nM.

On to `CNC(=O)c1ccc(-n2ncc3cc([C@@H](O)COC(C)C)cnc32)cc1` [Compound 67B], for which, in assay [1], the IC50 was below 100 nM. The EC50 in assay [2] was in the range of 100 to 1000 nM. The matching figures for `CC1(COC[C@H](O)c2cnc3c(cnn3-c3ccc(C(=O)O)cc3)c2)CC1` [Compound 106A]: below 100 nM and below 100 nM.

Consider `COCCNC(=O)c1ccc(-n2ncc3cc([C@@H](O)COC4CCC4)cnc32)cc1` [Compound 118A], for which the IC50 in assay [1] was below 100 nM. Besides, the EC50 in assay [2] is below 100 nM. In assay [1], `CC(C)OC[C@H](O)c1cnc2c(cnn2-c2ccc(CC(=O)O)cc2)c1` [Compound 71B] came in with an IC50 of at least 1000 nM. For the same compound, in assay [2], the EC50 is at least 1000 nM. For `O[C@@H](c1cnc2c(cnn2-c2ccc3nc(N4CCOCC4)nn3c2)c1)C1COC1` [Compound 64B], in assay [1], the IC50 is below 100 nM. The compound further registered a concentration for a half-maximal effect (EC50) in assay [2] below 100 nM. With `CS(=O)(=O)c1ccc(-n2ncc3cc([C@@H](O)COC4CCC4)cnc32)cc1` [Compound 121A], the IC50 in assay [1] lay in the range of 100 to 1000 nM. Further, the EC50 in assay [2] lay within 100 to 1000 nM. Turning to `CC(C)(O)CC[C@@H](O)c1cnc2c(cnn2-c2cccc(-c3nnc[nH]3)c2)c1` [Compound 56B], the IC50 in assay [1] was below 100 nM. The EC50 in assay [2] lay in the range of 100 to 1000 nM. The matching figures for `CC(C)OC[C@H](O)c1cnc2c(ccn2-c2ccc(C(=O)O)cc2)n1` [Compound 49A]: below 100 nM and at least 1000 nM.

For `O=C(O)c1ccc(-n2ccc3cc([C@@H](O)[C@@H]4CCCO4)cnc32)cc1` [Compound 98A], in assay [2], the EC50 is at least 1000 nM. As to `CS(=O)(=O)c1cccc(-n2ncc3cc([C@@H](O)COC4CCC4)cnc32)c1` [Compound 123A], the EC50 in assay [2] lay within 100 to 1000 nM.

In the case of `O[C@@H](COC1CCC1)c1cnc2c(cnn2-c2ccc(-c3nnn[nH]3)cc2)c1` [Compound 79B], the IC50 in assay [1] is below 100 nM.

For `O=C(O)c1ccc(-n2ncc3cc([C@H](O)C4CC(F)(F)C4)cnc32)cn1` [Compound 97A], the EC50 in assay [2] was at least 1000 nM. Still for that read-out and setting: as for `O[C@@H](c1cnc2c(cnn2-c2cccc(-c3nnc[nH]3)c2)c1)C1CCCC1` [Compound 9B], the figure is below 100 nM. The compound `CC(C)OC[C@H](O)c1cnc2c(cnn2-c2ccc(CCCC(=O)O)c(F)c2)c1` [Compound 77B] registered an IC50 in assay [1] below 100 nM.

In assay [2], `Cc1nn(-c2ccc(C(=O)O)cc2)c2ncc([C@H](O)COC3CCCC3)cc12` [Compound 104B] gave an EC50 of 100 to 1000 nM. `O=C(O)CCc1ccc(-n2ncc3cc([C@H](O)COC4CC4)cnc32)cc1F` [Compound 86B] displayed an IC50 in assay [1] below 100 nM. On the same count and under the same terms, the same measure for `CC(O)(c1cnc2c(ccn2-c2cccc(-c3nnc[nH]3)c2)c1)C1CCCC1` (single isomer, unassigned) [Compound 11A]: 100 to 1000 nM. Regarding `OC(c1cnc2c(ccn2-c2cccc(-c3nnc[nH]3)c2)c1)C1CC(F)(F)C1` (stereo in doubt) [Compound 7B, (S)-(3,3-difluorocyclobutyl)-[1-[3-(4H-1,2,4-triazol-3-yl)phenyl]pyrrolo[2,3-b]pyridin-5-yl]methanol], the EC50 in assay [2] was below 100 nM.

In the case of `O=C(O)c1ccc(-n2ccc3cc([C@@H](O)[C@H]4CCCO4)cnc32)cc1` [Compound 100A], the EC50 in assay [2] is at least 1000 nM.

On to `Cc1nn(-c2ccc(C(=O)O)cc2)c2ncc([C@H](O)C3CC(F)(F)C3)cc12` [Compound 102A], for which the EC50 in assay [2] was at least 1000 nM. Same read-out and setting: as for `CS(=O)(=O)c1cccc(-n2ncc3cc([C@H](O)COC4CCC4)cnc32)c1` [Compound 123B], the figure is at least 1000 nM. Same read-out and setting: the same measure for `CC1(C)CC(OC[C@@H](O)c2cnc3c(cnn3-c3ccc(C(=O)O)cc3)c2)C1` [Compound 105B]: below 100 nM.

Compound `O=C(O)c1ccc(-n2ccc3cc([C@H](O)[C@H]4CCCO4)cnc32)cc1` [Compound 100B] yielded an EC50 in assay [2] below 100 nM. Take `O=C(O)c1ccc(-n2ncc3cc([C@@H](O)C4COC4)ccc32)cc1` [Compound 120B]: in assay [1], the IC50 lay in the range of 100 to 1000 nM. `OC1(c2cnc3c(ccn3-c3cc(Cl)cc(-c4nnc[nH]4)c3)c2)CCCC1` [Compound 13] gave an IC50 in assay [1] of 100 to 1000 nM. `CCCCC(F)(F)[C@H](O)c1cnc2c(ccn2-c2cccc(-c3nnc[nH]3)c2)c1` [Compound 8B] returned an EC50 in assay [2] of 100 to 1000 nM. In turn, `O=C(O)c1ccc(-n2ncc3cc([C@H](O)COC4CC(F)(F)C4)cnc32)cc1` [Compound 91B] registered an EC50 in assay [2] of at least 1000 nM. `CC1(C)CC(OC[C@H](O)c2cnc3c(cnn3-c3ccc(C(=O)O)cc3)c2)C1` [Compound 105A] came in with an EC50 in assay [2] of 100 to 1000 nM. For the compound `O=C(O)CCc1ccc(-n2ncc3cc([C@H](O)COC4CCC4)cnc32)cc1F` [Compound 82B], the EC50 in assay [2] was at least 1000 nM. `CC(C)(O)c1cnc2c(ccn2-c2cc(Cl)cc(-c3nnc[nH]3)c2)c1` [Compound 14] yielded a 50% inhibitory concentration (IC50) in assay [1] of 100 to 1000 nM. Consider `O=C(O)c1ccc(-n2ccc3cc([C@H](O)COC4CCC4)cnc32)cc1` [Compound 103B], for which the EC50 in assay [2] is 100 to 1000 nM. The same measure, in the same setting: as for `O=C(O)c1ccc(-n2ncc3cc([C@@H](O)C4CC(F)(F)C4)cnc32)cn1` [Compound 97B], the figure is below 100 nM; as for `O=C(O)c1ccc(-n2ccc3cc([C@@H](O)COC4CCC4)cnc32)cc1` [Compound 103A], below 100 nM; as for `Cc1nn(-c2ccc(C(=O)O)cc2)c2ncc([C@@H](O)C3CC(F)(F)C3)cc12` [Compound 102B], 100 to 1000 nM. In assay [2], `O[C@H](c1cnc2c(ccn2-c2cccc(-c3nnc[nH]3)c2)c1)C1CCCC1` [Compound 6A] had an EC50 below 100 nM. As to `CC(C)(C)OC[C@H](O)c1cnc2c(ccn2-c2cccc(-c3nnc[nH]3)c2)c1` [Compound 31A], in assay [1], the IC50 was below 100 nM. `CC(C)OC[C@@H](O)c1cnc2c(cnn2-c2ccc(OCC(=O)O)cc2)c1` [Compound 78B] registered an IC50 in assay [1] below 100 nM.

`Cc1nn(-c2ccc(C(=O)O)cc2)c2ncc([C@@H](O)COC3CCCC3)cc12` [Compound 104A] returned an EC50 in assay [2] of 100 to 1000 nM. Consider `O=C(O)c1ccc(-n2ccc3cc([C@H](O)[C@@H]4CCCO4)cnc32)cc1` [Compound 98B], for which the EC50 in assay [2] is below 100 nM. `CC(O)(c1cnc2c(ccn2-c2cccc(-c3nnc[nH]3)c2)c1)C1CCCC1` (single isomer, unassigned) [Compound 11B]: the IC50 in assay [1] is at least 1000 nM. For the compound `CCCCC(F)(F)[C@@H](O)c1cnc2c(ccn2-c2cccc(-c3nnc[nH]3)c2)c1` [Compound 8A], in assay [2], the half-maximal effective concentration (EC50) was below 100 nM.

The compound `OC(c1cnc2c(ccn2-c2cccc(-c3nnc[nH]3)c2)c1)C1CC(F)(F)C1` (stereo in doubt) [Compound 7A, (R)-(3,3-difluorocyclobutyl)-[1-[3-(4H-1,2,4-triazol-3-yl)phenyl]pyrrolo[2,3-b]pyridin-5-yl]methanol] showed an EC50 in assay [2] below 100 nM.

For the compound `O=C(O)c1ccc(-n2ncc3cc([C@@H](O)COCC4CCC4)cnc32)cc1` [Compound 101A], in assay [2], the EC50 was below 100 nM. Still for that read-out and setting: as for `O[C@@H](c1cnc2c(ccn2-c2cccc(-c3nnc[nH]3)c2)c1)C1CCCC1` [Compound 6B], the figure is 100 to 1000 nM; as for `O=C(O)c1ccc(-n2ncc3cc([C@@H](O)COC4CC(F)(F)C4)cnc32)cc1` [Compound 91A], at least 1000 nM.

With `CC(C)(O)c1cnc2c(cnn2-c2cc(Cl)cc(-c3nnc[nH]3)c2)c1` [Compound 19, 2-[1-[3-chloro-5-(4H-1,2,4-triazol-3-yl)phenyl]pyrazolo[3,4-b]pyridin-5-yl]propan-2-ol], the IC50 in assay [1] is at least 1000 nM. Consider `O[C@H](c1cnc2c(cnn2-c2cccc(-c3nnc[nH]3)c2)c1)C1CCCC1` [Compound 9A], for which the EC50 in assay [2] was below 100 nM.
